From patent US20220175893A1, “COMBINATIONS OF TANNASE AND PROBIOTIC FORMULATIONS AND METHODS OF USE FOR IMPROVING TANNIN METABOLISM” (THE TEXAS A&M UNIVERSITY SYSTEM, priority 2019, published 2022)
Read-outs that look alike come from different tables or passages of the source. Marks after values point to notes of the source that are not given here.

Experiments:
rabbits [1] = experiment: Oral LD50 in rabbits (literature); format: in vivo, rabbit; conditions: for equivalent dose of the LD50 for a human equivalent of 75 kg: for 10 days
Description: For a human equivalent of 75 kg, the equivalent dose would be 210,000 and 255,000 mg/day for 10 days.

rabbits [2] = conditions: cited from earlier work
[3] = target: T1, Tannase sourced from Aspergillus oryzae (Aspergillus oryzae, UniProt P78581); experiment: Tannase (10^−3 U/mL) hydrolysis of galloyl glycosides, LC-MS; format: biochemical
T1 construct: purchased
Description: Standards solutions of monogalloyl glucose, pentagalloyl glucose, and a gallotannin isolate were incubated with tannase at 10^−3 U/mL to characterize the by-products and relative rates of galloyl derivative hydrolysis. 250 μL of 200 ppm monogalloyl glucose or pentagalloyl glucose were incubated with 650 μL of buffer set to the enzyme's optimum conditions (pH 5.5, 0.1 M citric acid buffer, 30° C.), and 100 μL of tannase 10^−3 U/mL for final standard concentrations of 50 ppm. […] Experiments were performed in a static water bath and prepared in triplicate for each time point at 0, 0.016, 0.033, 0.050, 0.083, 0.167, 0.5, 1, 1.5, 2, 3, 4 h. To end enzymatic activity, solutions were immediately diluted with 1000 μL 0.1% formic acid MeOH. Lastly, samples were filtered with a 0.45 μm syringe filter prior to LC-MS analysis.
Galloyl derivatives were characterized and quantified by use of LC-MS on a Thermo Finnigan HPLC. Separations were in reversed-phase using a Finnigan Surveyor HPLC coupled to a Surveyor PDA detector and gradient separations were performed using a Phenomenex Kinetex™ (Bannockburn, II) C18 column, (150×4.6 mm, 2.6 μm) at room temperature. Injections were made into the column by use of a 50 μL sample loop. […] A gradient was run of 0% Phase B for 2 min and changed to 10% Phase B in 4 min, 10% Phase B was held to 10 min, 10 to 40% Phase B in 25 min, and 40% to 65% Phase B in 35 min, 65% to 85% Phase B in 41 min, 85% was held to 49 min before returning to initial conditions. The electrospray interface worked in negative ionization mode. Source and capillary temperatures were set at 325° C., source voltage was 4.0 kV, capillary voltage was set at −47 V, and collision energy for MS/MS analysis was set at 35 eV. The instrument operated with sheath gas and auxiliary gas (N2) flow rates set at 10 units/min and 5 units/min, respectively. The instrument was tuned specifically for pentagalloyl glucose. […] Digalloyl glucoses, and trigalloyl glucoses were quantified at 280 nm and reported as equivalents of monogalloyl glucose. Tetragalloyl glucose and higher were quantified and reported as pentagalloyl glucose equivalents.
Tannase sourced from Aspergillus oryzae was incubated with standard solutions of monogalloyl glucose, pentagalloyl glucose, and a gallotannin isolate sourced from mango in an effort to characterize and quantify the intermediates formed during hydrolysis. […] Characterization of the different galloyl derivatives that can be formed during tannase hydrolysis is critical as they are likely to have different bio efficacies.

tannase = target: T2, tannase (Aspergillus oryzae, UniProt P78581); experiment: Tannase (20 U/mL) hydrolysis to free gallic acid, rhodanine assay; format: biochemical
T2 construct: purchased
T2 sequence (P78581 19-588): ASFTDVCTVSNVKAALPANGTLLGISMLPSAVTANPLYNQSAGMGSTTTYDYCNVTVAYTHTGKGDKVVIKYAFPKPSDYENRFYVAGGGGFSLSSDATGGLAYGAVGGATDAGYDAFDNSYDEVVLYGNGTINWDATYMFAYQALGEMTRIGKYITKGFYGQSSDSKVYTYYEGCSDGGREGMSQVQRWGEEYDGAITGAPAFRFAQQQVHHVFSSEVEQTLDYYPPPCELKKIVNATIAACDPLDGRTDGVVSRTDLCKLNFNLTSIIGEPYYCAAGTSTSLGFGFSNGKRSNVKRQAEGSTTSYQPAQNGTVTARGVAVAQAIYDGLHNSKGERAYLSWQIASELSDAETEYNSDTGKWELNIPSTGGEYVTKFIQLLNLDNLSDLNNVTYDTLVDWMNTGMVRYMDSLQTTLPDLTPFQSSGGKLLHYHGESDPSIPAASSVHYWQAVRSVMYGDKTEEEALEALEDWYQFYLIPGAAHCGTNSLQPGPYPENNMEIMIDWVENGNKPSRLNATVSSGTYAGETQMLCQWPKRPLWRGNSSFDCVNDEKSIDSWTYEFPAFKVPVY
Description: 200 uL of 641±16 and 2051±46 ppm GAE gallotannin isolate was aliquotted into test tubes and made up to 1 mL with 20 U/mL tannase hydrated in pH 5.5, 0.1 M citrate buffer. Samples were incubated for 0, 0.16 (10 min), 0.5, 1, 2, 4, 6, 12, and 24 h at 35° C. in a static water bath. After each time point had elapsed, 1 mL of 0.1% formic acid MeOH was added to each test tube. 50 and 100 ppm monogalloyl glucose was also treated with tannase under the same conditions. The total pro-gallic acid content of the gallotannin isolate and monogalloyl glucose were quantified by the colorimetric rhodanine assay modified from Inoue & Hagerman (1988). 600 μL of 0.667% rhodanine in methanol was added to 400 μL of hydrolyzed tannin fraction sample. After 10 min, 400 μL of 0.5 M NaOH was added to develop color for 20 min until bringing the final volume to 10 mL with deionized water. Absorbance was measured at 520 nm.

[4] = Stability of gallic acid at pH 5.5 over 24 h; format: physicochemical
3T3-L1 adipocytes = conditions: cited from earlier work

O=C(OC[C@H]1O[C@@H](OC(=O)c2cc(O)c(O)c(OC(=O)c3cc(O)c(O)c(O)c3)c2)[C@H](OC(=O)c2cc(O)c(O)c(OC(=O)c3cc(O)c(O)c(O)c3)c2)[C@@H](OC(=O)c2cc(O)c(O)c(OC(=O)c3cc(O)c(O)c(O)c3)c2)[C@@H]1OC(=O)c1cc(O)c(O)c(OC(=O)c2cc(O)c(O)c(O)c2)c1)c1cc(O)c(O)c(OC(=O)c2cc(O)c(O)c(O)c2)c1 [tannic acid]
equivalent dose of the LD50 for a human equivalent of 75 kg (rabbits [1]): 255,000 mg/day | margin of the highest selected study dose (566 mg/L) below the LD50 dose (rabbits [1]; human equivalent of 75 kg): 451 fold | oral LD50 (rabbits [2]; rabbits, for 10 days): 3400 mg/kg/day

monogalloyl glucose
time to reach the same amount of generated gallic acid as pentagalloyl glucose at 2 h [3]: 4 h | total pro-gallic acid content generated (molar basis) ([3]; 2 h incubation): 28.9±0.26% | hydrolysis to free gallic acid (tannase; 1 h incubation with 20 U/mL of tannase): completely hydrolyzed to free gallic acid | Free gallic acid from hydrolysis with 20 U/mL of tannase (tannase; monogalloyl glucose 50 mg/L, pH 5.5, 0 h): 1.26 ± 0.13 ^a mg/L | Free gallic acid from hydrolysis with 20 U/mL of tannase (tannase; monogalloyl glucose 50 mg/L, pH 5.5, 1 h): 19.9 ± 0.13 ^b mg/L | Free gallic acid from hydrolysis with 20 U/mL of tannase (tannase; monogalloyl glucose 50 mg/L, pH 5.5, 2 h): 20.2 ± 0.88 ^b mg/L | Free gallic acid from hydrolysis with 20 U/mL of tannase (tannase; monogalloyl glucose 50 mg/L, pH 5.5, 12 h): 20.1 ± 0.25 ^b mg/L | Free gallic acid from hydrolysis with 20 U/mL of tannase (tannase; monogalloyl glucose 50 mg/L, pH 5.5, 24 h): 19.9 ± 0.87 ^b mg/L | Free gallic acid from hydrolysis with 20 U/mL of tannase (tannase; monogalloyl glucose 100 mg/L, pH 5.5, 0 h): 1.76 ± 0.25 ^a mg/L | Free gallic acid from hydrolysis with 20 U/mL of tannase (tannase; monogalloyl glucose 100 mg/L, pH 5.5, 1 h): 39.7 ± 0.50 ^b mg/L | Free gallic acid from hydrolysis with 20 U/mL of tannase (tannase; monogalloyl glucose 100 mg/L, pH 5.5, 2 h): 42.5 ± 1.01 ^b mg/L | Free gallic acid from hydrolysis with 20 U/mL of tannase (tannase; monogalloyl glucose 100 mg/L, pH 5.5, 12 h): 39.2 ± 1.89 ^b mg/L | Free gallic acid from hydrolysis with 20 U/mL of tannase (tannase; monogalloyl glucose 100 mg/L, pH 5.5, 24 h): 35.7 ± 3.14 ^b mg/L

O=C(OC[C@H]1O[C@@H](OC(=O)c2cc(O)c(O)c(O)c2)[C@H](OC(=O)c2cc(O)c(O)c(O)c2)[C@@H](OC(=O)c2cc(O)c(O)c(O)c2)[C@@H]1OC(=O)c1cc(O)c(O)c(O)c1)c1cc(O)c(O)c(O)c1 [pentagalloyl glucose]
total pro-gallic acid content generated (molar basis) ([3]; 2 h incubation): 45.5±0.53% | pentagalloyl glucose hydrolyzed ([3]; 2 h incubation, pH 5.5, 30° C.): 97.2±0.27%

O=C(O)c1cc(O)c(O)c(O)c1 [Gallic Acid, gallic acid]
stability of gallic acid at the conditions of the method ([4]; 50 and 100 ppm gallic acid in pH 5.5 buffer, after 24 h): did not show any indication of degradation | Gallic acid concentration (stability at pH 5.5) ([4]; gallic acid 50 mg/L, pH 5.5, 0 h): 48.2 ± 1.28 ^a mg/L | Gallic acid concentration (stability at pH 5.5) ([4]; gallic acid 50 mg/L, pH 5.5, 1 h): 50.4 ± 0.45 ^b mg/L | Gallic acid concentration (stability at pH 5.5) ([4]; gallic acid 50 mg/L, pH 5.5, 2 h): 51.2 ± 0.62 ^b mg/L | Gallic acid concentration (stability at pH 5.5) ([4]; gallic acid 50 mg/L, pH 5.5, 12 h): 47.2 ± 0.87 ^b mg/L | Gallic acid concentration (stability at pH 5.5) ([4]; gallic acid 50 mg/L, pH 5.5, 24 h): 49.4 ± 0.37 ^b mg/L | Gallic acid concentration (stability at pH 5.5) ([4]; gallic acid 100 mg/L, pH 5.5, 0 h): 107 ± 3.07 ^a mg/L | Gallic acid concentration (stability at pH 5.5) ([4]; gallic acid 100 mg/L, pH 5.5, 1 h): 102 ± 2.43 ^b mg/L | Gallic acid concentration (stability at pH 5.5) ([4]; gallic acid 100 mg/L, pH 5.5, 2 h): 111 ± 1.63 ^b mg/L | Gallic acid concentration (stability at pH 5.5) ([4]; gallic acid 100 mg/L, pH 5.5, 12 h): 97.9 ± 1.38 ^b mg/L | Gallic acid concentration (stability at pH 5.5) ([4]; gallic acid 100 mg/L, pH 5.5, 24 h): 108 ± 1.11 ^b mg/L | equivalent dose of the LD50 for a human equivalent of 75 kg (rabbits [1]): 210,000 mg/day | oral LD50 (rabbits [2]; rabbit, in vivo, po): 2800 mg/kg/day

Oc1cccc(O)c1O [PG, pyrogallol]
adipogenesis and lipid accumulation (3T3-L1 adipocytes): inhibit adipogenesis and reduce lipid accumulation | thermogenesis (3T3-L1 adipocytes): promotes thermogenesis
